Measurements published in US20210261636A1, “NEOANTIGENS EXPRESSED IN MULTIPLE MYELOMA AND THEIR USES” (Janssen Biotech, Inc., priority 2020, published 2021).

Assays:
[1] = test system: CD8+ T cells; experiment: Exogenous autologous healthy donor restimulation assay, TNFα and IFNγ production by CD8+ T cells; assay type: cell-based, human; set-up: Frequency (TNFα+ IFNγ+ CD8 T cells): unit not given here; settings: for Fold change (CD8+) vs. DMSO: maximum CD8+ T-cell response (TNFα and IFNγ); for Fold change (CD8+) vs. DMSO / Frequency (TNFα+ IFNγ+ CD8 T cells): donor independent, peptide pool 10 μg/mL, healthy donors; for Frequency (TNFα+ IFNγ+ CD8 T cells): maximum CD8+ T-cell response; for Immunogenic (yes/no): positive if CD8+ and/or CD4+ double positive TNFα/IFNγ frequency >=3-fold over DMSO and at least 0.01%
Summary of the method: (§1)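 CD1c+ DCs from healthy donor PBMCs pulsed 2 h with 15-mer overlapping neoantigen peptide pools (10 μg/mL), irradiated 50 Gy, then co-cultured 12 days with autologous CD3+ T cells plus IL-15/IL-2. Restimulated day 11 with same pools, overnight with protein inhibitor; intracellular TNFα/IFNγ by flow. Positive: ≥3-fold over DMSO and ≥0.01% double-positive.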

[2] = test system: CD4+ T cells; experiment: Exogenous autologous healthy donor restimulation assay, TNFα and IFNγ production by CD4+ T cells; assay type: cell-based, human; set-up: Frequency (TNFα+ IFNγ+ CD4 T cells): unit not given here; settings: donor independent, peptide pool 10 μg/mL, healthy donors; for Fold change (CD4+) vs. DMSO: maximum CD4+ T-cell response (TNFα and IFNγ); for Frequency (TNFα+ IFNγ+ CD4 T cells): maximum CD4+ T-cell response
Summary of the method: as §1

Row | Sequence | Fold change (CD8+) vs. DMSO [1] | Frequency (TNFα+ IFNγ+ CD8 T cells) [1] | Immunogenic (yes/no) [1] | Fold change (CD4+) vs. DMSO [2] | Frequency (TNFα+ IFNγ+ CD4 T cells) [2]
1 | SEMVAHERYVFEATGNDSFRTLCLLMK [AS112, alternative splicing, CFAP54] | 35.03 | 0.062 | Yes | 7.92 | 0.012
2 | GEPGEDAGIGRPEEREREEEMADQ [AS135, alternative splicing, ZBP1] | 2.68 | 0.092 | No | 3.73 | 0.03
3 | AKFWSDISINRAPSFG [AS94, alternative splicing, TTLL7] | 97.14 | 2.72 | Yes | 62.53 | 0.63
4 | CRERGLQEAEGDVAAL [FUS40, gene fusion KLF2-> TPM4] | 18.3 | 0.43 | Yes | 1.26 | 0.024
5 | VAPSQSRQEECWRHKMSW [AS42, alternative splicing, LARP1B] | 40 | 0.076 | Yes | 3.83 | 0.025
6 | QIIYDENRTMQIFVKT [FUS28, gene fusion NCOR2-> UBC] | 247.49 | 0.37 | Yes | 1.13 | 0.009
7 | ARWFTREQGSEN [FUS12, gene fusion NUDT12-> LINC02115] | 24.68 | 0.58 | Yes | 2.77 | 0.027
8 | FSQNMNTKMIRGTERKQQYYGLQILE [AS134, alternative splicing, XPO1] | 4.51 | 0.091 | Yes | 1.429 | 0.02
9 | DVAVICSGRRSARDP [FUS4, gene fusion CD5L-> FCRL1] | 3.1 | 0.04 | No | 7.13 | 0.029
10 | AAGVVTEIEAAVKA [FUS17, gene fusion HBS1L-> ALDH8A1] | 5.31 | 0.13 | Yes | 2.11 | 0.012
11 | SATTRSITGQDILSLEKERR [AS17, alternative splicing, DCC] | 14.05 | 0.13 | Yes | 7.078 | 0.028
12 | FALMASLGIPQTMAA [FUS56, gene fusion ZNF772-> VN1R1] | 2.73 | 0.007 | Yes | 115.03 | 0.75
13 | DLNQDGYNGNLNQSVEVIYVSSPLHKGDHACFKVFSMVCVGAVIITDF [AS64, alternative splicing, ITGA8] | 6.83 | 0.8 | Yes | 376.11 | 0.57
14 | SSLQEHRKLLS [AS52, alternative splicing, PRDM5] | 12.72 | 0.18 | Yes | 1.9 | 0.012
15 | DPTTKRSRLTPKLHFLVERNPRWSQEQRKYL [AS92, alternative splicing, MSI2] | 41.24 | 0.073 | Yes | 31.67 | 0.048
16 | LDQCVETLCSLSKSD [FUS44, gene fusion ZGPAT-> LIME1] | 4.82 | 0.097 | Yes | 4.8 | 0.024
17 | IDPSSPLHTYYERITKGRNPERRYMKPERISPGHEAMEKNLEDNL [AS129, alternative splicing, TET1] | 19.08 | 0.27 | Yes | 9.79 | 0.022

Row | Sequence | Fold change (CD8+) vs. DMSO [1] | Frequency (TNFα+ IFNγ+ CD8 T cells) [1] | Immunogenic (yes/no) [1] | Fold change (CD4+) vs. DMSO [2] | Frequency (TNFα+ IFNγ+ CD4 T cells) [2]
18 | PRDNHTDHENPRGSDGQGRWKCPSQVTYIRRTLM [FUS16, gene fusion UBE2J1-> GABRR2] | 8.86 | 0.12 | Yes | 4.388 | 0.027
19 | GRAGQGGGMISVSQEFIK [FUS7, gene fusion FAM98A-> LOC105374454] | 3.04 | 0.093 | Yes | 17.18 | 0.21
20 | YGVYVINQKGHSGCIWSMDGEGRLETAWPVWKRGRCPGKRR [AS15, alternative splicing, B4GALT2] | 290 | 0.029 | Yes | 2469.136 | 0.9
21 | LDPPHDEKALACPQWTLLWIFWTAKAL [AS95, alternative splicing, WDR64] | 1.58 | 0.13 | Yes | 19.58 | 0.014
22 | IMLIGNKSNCQKQLLRDMKILNEFYHGLILTLQLS [AS126, alternative splicing, RAB2B] | 161.72 | 0.49 | Yes | 6.861 | 0.04
23 | VYYLYKNVAYKGSDID [AS86, alternative splicing, ATP10B] | 2.7 | 0.018 | Yes | 12.54 | 0.019
24 | NRVTALTQN [FUS35, gene fusion TMED3-> KIAA1024] | 3.24 | 0.049 | Yes | 2.28 | 0.019
25 | LVARPEIQIFMEEDVMKVE [AS124, alternative splicing, PDZRN4] | 5.27 | 0.089 | Yes | 7.31 | 0.064
26 | SLLSLFPGKTVEITCLQHQKC [AS3, alternative splicing, BBS9] | 92.41 | 0.28 | Yes | 3.43 | 0.026
27 | LQAILQPGNFILVNEI [AS5, alternative splicing, C3orf79] | 4.64 | 0.068 | Yes | 19.14 | 0.14
28 | TVPASQKLSCSLDPKHLRQFHL [AS30, alternative splicing, BLNK] | 13.86 | 0.082 | Yes | 2.23 | 0.012
29 | LEDKELGRISVCPWTEGLEKMEKTLLCSSSG [AS88, alternative splicing, CADPS2] | 4.55 | 0.025 | Yes | 79.18 | 0.12
30 | KRYGCVFQVSIRHLSFPVTDILP [AS77, alternative splicing, TRAF3] | 369.64 | 1.12 | Yes | 7.547 | 0.046
31 | EGTPFEDGKSYSLCFL [AS78, alternative splicing, UBE2B] | 29.32 | 0.52 | Yes | 3.14 | 0.024
32 | CKVCQNCKNPKMARAS [AS23, alternative splicing, KMT2C] | 3.05 | 0.065 | Yes | 18 | 0.063
33 | LARQISFKSLI [FUS14, gene fusion UBE2J1-> GABRR2] | 3.27 | 0.005 | Yes | 256.93 | 0.19
34 | LGRLEEAKVPLKMLLF [AS122, alternative splicing, OGT] | 3.63 | 0.044 | Yes | 13.71 | 0.048
